Key:
[1] = tested on: Human multiple myeloma cell (MM.1S); assay: Tumor cell proliferation inhibition (CellTiter-Meiluncell luminescent cell viability assay); details: Homo sapiens, MM1.S, 96 h; for inhibition at 0.01 µM: read-out: Inhibition Rate at 10 nM (%); for inhibition at 0.5 µM: read-out: Inhibition Rate at 500 nM (%)
[2] = tested on: Human malignant melanoma cell line: A375; assay: as above; details: A-375, 96 h; for inhibition at 0.01 µM: read-out: Inhibition Rate at 10 nM (%); for inhibition at 0.5 µM: read-out: Inhibition Rate at 500 nM (%)
Experimental: (§1) The tumor cells used herein were cultured in a cell culture medium listed in table 2 at 37°C in an incubator with 5% CO2. Prior to experimentation, all cell lines used were correctly identified by STR profiling, and tested negative for mycoplasma contamination using a mycoplasma detection kit through routine screenings.
(§2) The IC50 values of the compounds of the present disclosure (including the compounds in Table 1 and Examples) were determined using the CellTiter-Meiluncell Luminescent Cell Viability Assay Kit from Dalian Meilun Biotech Co., Ltd. The detailed procedure is as follows: Tumor cells were seeded in 96-well cell culture plates at the densities specified in Table 3. On the following day, the test compounds of the present disclosure were subjected to serial dilution. The dilution can be performed according to one of the following two methods: • (1) The first dilution method: The test compounds of the present disclosure (including the compounds in Table 1 and Examples) were subjected to 5-fold serial dilutions starting from a highest concentration of 2000 µM, resulting in a total of 9 concentrations from high to low (2000, 400, 80, 16, 3.2, 0.64, 0.128, 0.0256, 0.00512 µM). Subsequently, 0.5 µL of the test compound dilution was transferred into the 96-well plate containing the cells, with each well containing 100 µL of cell culture medium. […] Into the 96-well plate, the diluted test compounds and corresponding detection reagents were added, resulting in final test compound concentrations of 500 nM and 10 nM, respectively. The experimental procedure is described below using the diluted 2 µM test compound as an example.
(§3) 0.5 µL of the aforementioned diluted compound of the present disclosure (including the compounds in Table 1 and Examples) was added to the seeded cells in 100 µL of medium, yielding a final test compound concentration of 10 nM. After the cells were treated with the compounds of the present disclosure for a specified period, the cell viability assay reagent was added to the culture medium according to the kit's instructions to determine cell viability. […] All controls were treated using the same procedure as the compounds of the present disclosure. The growth inhibition curves for the compounds of the present disclosure were plotted using Prism GraphPad software, and the IC50 values were calculated therefrom.

IKZF2 = target: T1, IKZF2 (Homo sapiens, UniProt Q96SW2+Q9UKS7); assay: Western blot, degradation of substrate protein in hPBMCs; assay type: cell-based; details: 24 hours treatment, compounds at 50 nM and 500 nM (concentration behind the class not stated)
T1 construct: effects of the compounds of the present disclosure on the expression of target proteins in cells; endogenous in cells; host or cells: human PBMCs (Milecell Biotechnologies)
T1 sequence (Q9UKS7 whole entry): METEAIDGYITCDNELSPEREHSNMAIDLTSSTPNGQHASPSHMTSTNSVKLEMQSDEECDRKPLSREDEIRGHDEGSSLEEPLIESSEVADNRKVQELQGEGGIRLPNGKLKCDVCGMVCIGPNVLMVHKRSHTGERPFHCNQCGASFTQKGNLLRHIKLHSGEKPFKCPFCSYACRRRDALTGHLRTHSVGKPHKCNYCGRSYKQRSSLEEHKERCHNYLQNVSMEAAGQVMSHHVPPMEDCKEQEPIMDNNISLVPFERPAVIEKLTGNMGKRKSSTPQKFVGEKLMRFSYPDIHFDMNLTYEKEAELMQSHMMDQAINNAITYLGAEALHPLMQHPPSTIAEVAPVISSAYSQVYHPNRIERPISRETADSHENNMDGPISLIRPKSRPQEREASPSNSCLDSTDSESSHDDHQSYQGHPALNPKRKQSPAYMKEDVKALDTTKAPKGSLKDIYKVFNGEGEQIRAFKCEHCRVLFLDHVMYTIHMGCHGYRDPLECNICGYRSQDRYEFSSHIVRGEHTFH
T1 sequence (Q96SW2 whole entry): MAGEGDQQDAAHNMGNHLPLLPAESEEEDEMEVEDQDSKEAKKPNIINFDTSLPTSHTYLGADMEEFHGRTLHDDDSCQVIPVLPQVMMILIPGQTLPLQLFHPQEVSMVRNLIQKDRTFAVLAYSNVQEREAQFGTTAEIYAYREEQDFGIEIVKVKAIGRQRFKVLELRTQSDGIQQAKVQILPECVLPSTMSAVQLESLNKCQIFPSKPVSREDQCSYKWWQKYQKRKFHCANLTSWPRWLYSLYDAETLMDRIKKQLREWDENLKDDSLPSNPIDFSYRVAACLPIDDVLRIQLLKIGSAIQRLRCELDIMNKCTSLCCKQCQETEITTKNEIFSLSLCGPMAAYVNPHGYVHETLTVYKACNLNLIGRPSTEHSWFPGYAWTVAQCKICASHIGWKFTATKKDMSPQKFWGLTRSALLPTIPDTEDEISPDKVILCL
T1 sequence (Q16531 whole entry partner): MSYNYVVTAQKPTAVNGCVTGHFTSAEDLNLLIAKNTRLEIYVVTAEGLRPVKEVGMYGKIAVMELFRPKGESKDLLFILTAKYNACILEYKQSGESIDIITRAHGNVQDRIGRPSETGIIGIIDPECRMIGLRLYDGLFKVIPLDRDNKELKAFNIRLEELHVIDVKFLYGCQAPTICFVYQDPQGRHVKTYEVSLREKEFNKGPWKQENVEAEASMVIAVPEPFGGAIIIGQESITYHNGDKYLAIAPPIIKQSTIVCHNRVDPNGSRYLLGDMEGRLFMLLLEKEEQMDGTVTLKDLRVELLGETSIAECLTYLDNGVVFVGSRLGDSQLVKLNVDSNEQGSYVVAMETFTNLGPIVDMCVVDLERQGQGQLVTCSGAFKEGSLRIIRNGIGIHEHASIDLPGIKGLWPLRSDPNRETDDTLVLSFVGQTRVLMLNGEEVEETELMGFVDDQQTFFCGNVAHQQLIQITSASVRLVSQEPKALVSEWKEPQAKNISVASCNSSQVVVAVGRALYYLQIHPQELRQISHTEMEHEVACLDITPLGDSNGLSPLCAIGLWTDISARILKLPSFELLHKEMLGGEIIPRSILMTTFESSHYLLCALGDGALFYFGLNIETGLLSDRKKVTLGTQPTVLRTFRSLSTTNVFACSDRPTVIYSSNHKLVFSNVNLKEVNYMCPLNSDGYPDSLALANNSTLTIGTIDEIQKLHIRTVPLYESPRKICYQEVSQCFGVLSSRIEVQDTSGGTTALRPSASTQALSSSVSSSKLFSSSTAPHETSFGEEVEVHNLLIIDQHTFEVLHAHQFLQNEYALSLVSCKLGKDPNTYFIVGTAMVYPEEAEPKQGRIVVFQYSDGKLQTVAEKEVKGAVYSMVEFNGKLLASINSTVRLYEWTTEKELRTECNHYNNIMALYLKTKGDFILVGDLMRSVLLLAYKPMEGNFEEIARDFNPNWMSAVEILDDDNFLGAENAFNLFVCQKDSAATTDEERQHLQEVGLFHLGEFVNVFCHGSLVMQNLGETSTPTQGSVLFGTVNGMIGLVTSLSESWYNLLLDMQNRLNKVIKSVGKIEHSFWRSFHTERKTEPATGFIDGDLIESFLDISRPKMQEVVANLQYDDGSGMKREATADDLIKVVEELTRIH

CK1α = target: T2, CK1α (Homo sapiens, UniProt P48729+Q96SW2); assay: as above; assay type: cell-based; details: 24 hours treatment, compounds at 50 nM and 500 nM (concentration behind the class not stated)
T2 construct: effects of the compounds of the present disclosure on the expression of target proteins in cells; endogenous in cells; host or cells: human PBMCs (Milecell Biotechnologies)
T2 sequence (P48729 whole entry): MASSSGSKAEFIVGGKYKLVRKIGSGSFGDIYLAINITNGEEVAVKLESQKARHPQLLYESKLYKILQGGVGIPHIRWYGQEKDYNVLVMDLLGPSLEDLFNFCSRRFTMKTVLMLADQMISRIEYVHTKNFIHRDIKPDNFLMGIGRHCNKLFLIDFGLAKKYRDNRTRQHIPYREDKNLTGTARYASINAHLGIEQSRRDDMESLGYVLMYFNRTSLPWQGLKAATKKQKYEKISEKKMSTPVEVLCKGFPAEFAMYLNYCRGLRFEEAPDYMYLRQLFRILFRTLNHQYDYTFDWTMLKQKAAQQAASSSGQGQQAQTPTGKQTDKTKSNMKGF
T2 sequence (Q96SW2 whole entry): as the sequence (Q96SW2 whole entry) above
T2 sequence (Q16531 whole entry partner): as the sequence (Q16531 whole entry partner) above

IKZF3 = target: T3, IKZF3 (Homo sapiens, UniProt Q96SW2+Q9UKT9); assay: as above; assay type: cell-based; details: 24 hours treatment, compounds at 50 nM and 500 nM (concentration behind the class not stated)
T3 construct: effects of the compounds of the present disclosure on the expression of target proteins in cells; endogenous in cells; host or cells: human PBMCs (Milecell Biotechnologies)
T3 sequence (Q9UKT9 whole entry): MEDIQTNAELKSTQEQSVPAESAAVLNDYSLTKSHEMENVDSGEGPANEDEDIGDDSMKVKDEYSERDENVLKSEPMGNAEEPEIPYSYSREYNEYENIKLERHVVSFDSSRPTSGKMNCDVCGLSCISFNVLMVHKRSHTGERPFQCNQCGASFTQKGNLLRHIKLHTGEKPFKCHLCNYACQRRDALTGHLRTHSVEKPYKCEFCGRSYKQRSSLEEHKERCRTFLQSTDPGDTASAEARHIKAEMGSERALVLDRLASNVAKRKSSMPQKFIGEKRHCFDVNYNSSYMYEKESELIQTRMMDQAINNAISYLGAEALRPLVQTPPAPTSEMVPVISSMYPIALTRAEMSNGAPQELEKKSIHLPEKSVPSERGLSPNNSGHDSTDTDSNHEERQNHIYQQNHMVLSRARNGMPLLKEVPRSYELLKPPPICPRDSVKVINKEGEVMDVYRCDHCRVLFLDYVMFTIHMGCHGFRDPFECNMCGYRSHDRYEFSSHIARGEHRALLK
T3 sequence (Q96SW2 whole entry): as the sequence (Q96SW2 whole entry) above
T3 sequence (Q16531 whole entry partner): as the sequence (Q16531 whole entry partner) above

WEE1 = target: T4, WEE1 (Homo sapiens, UniProt P30291+Q96SW2); assay: as above; assay type: cell-based; details: 24 hours treatment, compounds at 50 nM and 500 nM (concentration behind the class not stated)
T4 construct: effects of the compounds of the present disclosure on the expression of target proteins in cells; endogenous in cells; host or cells: human PBMCs (Milecell Biotechnologies)
T4 sequence (P30291 whole entry): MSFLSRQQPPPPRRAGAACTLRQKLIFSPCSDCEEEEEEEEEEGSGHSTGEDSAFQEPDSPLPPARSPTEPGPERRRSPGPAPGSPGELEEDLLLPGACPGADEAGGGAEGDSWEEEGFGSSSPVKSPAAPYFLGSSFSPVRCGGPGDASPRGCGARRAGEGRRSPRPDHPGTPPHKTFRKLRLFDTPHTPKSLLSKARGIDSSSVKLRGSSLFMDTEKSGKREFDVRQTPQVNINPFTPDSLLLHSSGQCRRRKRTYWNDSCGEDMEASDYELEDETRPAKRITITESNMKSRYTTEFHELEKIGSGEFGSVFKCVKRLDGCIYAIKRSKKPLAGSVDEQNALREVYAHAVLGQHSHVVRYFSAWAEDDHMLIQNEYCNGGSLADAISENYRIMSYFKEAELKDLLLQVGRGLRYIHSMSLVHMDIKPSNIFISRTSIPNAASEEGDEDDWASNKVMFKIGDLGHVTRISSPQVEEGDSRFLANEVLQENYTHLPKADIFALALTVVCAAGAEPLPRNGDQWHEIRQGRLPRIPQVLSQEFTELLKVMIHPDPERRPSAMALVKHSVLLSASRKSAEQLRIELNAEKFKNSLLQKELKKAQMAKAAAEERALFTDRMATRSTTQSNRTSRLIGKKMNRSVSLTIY
T4 sequence (Q96SW2 whole entry): as the sequence (Q96SW2 whole entry) above
T4 sequence (Q16531 whole entry partner): as the sequence (Q16531 whole entry partner) above

IKZF1 = target: T5, IKZF1 (Homo sapiens, UniProt Q13422+Q96SW2); assay: as above; assay type: cell-based; details: 24 hours treatment, compounds at 50 nM and 500 nM (concentration behind the class not stated)
T5 construct: effects of the compounds of the present disclosure on the expression of target proteins in cells; endogenous in cells; host or cells: human PBMCs (Milecell Biotechnologies)
T5 sequence (Q13422 whole entry): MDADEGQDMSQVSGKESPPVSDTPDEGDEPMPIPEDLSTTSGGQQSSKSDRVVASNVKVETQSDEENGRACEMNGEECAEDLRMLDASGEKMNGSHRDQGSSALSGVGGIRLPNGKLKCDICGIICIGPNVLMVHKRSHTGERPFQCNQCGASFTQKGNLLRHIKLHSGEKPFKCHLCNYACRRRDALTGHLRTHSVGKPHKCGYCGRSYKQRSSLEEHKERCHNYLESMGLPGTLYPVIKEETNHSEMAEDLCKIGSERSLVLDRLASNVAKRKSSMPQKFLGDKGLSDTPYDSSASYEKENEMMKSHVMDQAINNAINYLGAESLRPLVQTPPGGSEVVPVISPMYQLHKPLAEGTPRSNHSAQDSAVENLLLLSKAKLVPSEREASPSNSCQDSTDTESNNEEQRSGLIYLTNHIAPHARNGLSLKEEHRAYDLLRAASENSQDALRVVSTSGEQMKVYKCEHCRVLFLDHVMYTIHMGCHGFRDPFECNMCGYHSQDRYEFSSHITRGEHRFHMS
T5 sequence (Q96SW2 whole entry): as the sequence (Q96SW2 whole entry) above
T5 sequence (Q16531 whole entry partner): as the sequence (Q16531 whole entry partner) above

[3] = target: T6, human Cereblon WT GST-tagged protein (Homo sapiens, UniProt Q96SW2); assay: CRBN-binding affinity, HTRF (CEREBLON BINDING kit); details: for inhibition at 0.5 µM: read-out: Inhibition Rate at 0.5 µM (%); for inhibition at 2 µM: read-out: Inhibition Rate at 2 µM (%)
T6 construct: purchased CISBIO 64BDCRBNPEH
T6 sequence (Q96SW2 whole entry): as the sequence (Q96SW2 whole entry) above

[4] = tested on: Human monocytic leukemia cell line: THP-1; assay: Tumor cell proliferation inhibition (CellTiter-Meiluncell luminescent cell viability assay); details: THP-1, 96 h; for inhibition at 0.01 µM: read-out: Inhibition Rate at 10 nM (%); for inhibition at 0.5 µM: read-out: Inhibition Rate at 500 nM (%)
Experimental: as §1, §2, §3

[5] = tested on: Human colon cancer cell line: SW620; assay: as above; details: SW-620, 96 h; for inhibition at 0.01 µM: read-out: Inhibition Rate at 10 nM (%); for inhibition at 0.5 µM: read-out: Inhibition Rate at 500 nM (%)
Experimental: as §1, §2, §3

[6] = tested on: Human breast cancer cell (MCF-7); assay: as above; details: MCF7, 96 h; for inhibition at 0.01 µM: read-out: Inhibition Rate at 10 nM (%); for inhibition at 0.5 µM: read-out: Inhibition Rate at 500 nM (%)
GSPT1 = assay: Western blot, degradation of substrate protein in hPBMCs; assay type: cell-based, Human; details: 24 hours treatment, compounds at 50 nM and 500 nM (concentration behind the class not stated)
[7] = tested on: Human multiple myeloma peripheral blood B lymphocyte cell (RPMI-8226); assay: Tumor cell proliferation inhibition (CellTiter-Meiluncell luminescent cell viability assay); details: RPMI-8226, 96 h; for inhibition at 0.5 µM: read-out: Inhibition Rate at 500 nM (%)
Experimental: as §1, §2, §3

[8] = tested on: Human acute T lymphocytic leukemia cell (Molt4); assay: as above; details: MOLT-4, 96 h
Experimental: as §1, §2, §3

[9] = tested on: Human T lymphocytic leukemia cell line: Jurkat; assay: as above; details: 96 h
[10] = tested on: Human T cell acute lymphoblastic leukemia cell (CCRF-CEM); assay: as above; details: 96 h
[11] = tested on: Human myeloid monocytic leukemia cell (MV-4-11); assay: as above; details: MV4-11, 96 h
[12] = tested on: Human acute myeloid leukemia cell line: Kasumi-1; assay: as above; details: Kasumi 1, 96 h
Experimental: as §1, §2, §3

[13] = read-out: Inhibition Rate at 10 nM (%)
[14] = read-out: Inhibition Rate at 500 nM (%)

inhibition at 0.5 µM [3] [%]	inhibition at 2 µM [3] [%]	Compound	inhibition at 0.01 µM [1] [%]	inhibition at 0.5 µM [1] [%]	inhibition at 0.01 µM [2] [%]	inhibition at 0.5 µM [2] [%]	IKZF2 substrate protein remaining % (IKZF2)	CK1α substrate protein remaining % (CK1α)	IKZF3 substrate protein remaining % (IKZF3)	Wee1 substrate protein remaining % (WEE1)	IKZF 1 substrate protein remaining % (IKZF1)	inhibition at 0.01 µM [4] [%]	inhibition at 0.5 µM [4] [%]	inhibition at 0.01 µM [5] [%]	inhibition at 0.5 µM [5] [%]	inhibition at 0.01 µM [6] [%]	inhibition at 0.5 µM [6] [%]	GSPT1 substrate protein remaining % (GSPT1)	inhibition at 0.5 µM [7] [%]	also measured
40 to 53	80 to 100	CC(C)c1cc2c(C3=CCN(Cc4ccc5c(c4)CN(C4CCC(=O)NC4=O)C5=S)CC3)ncnc2s1 (centres unmarked) [GT-09317, 3-(5-((4-(6-isopropylthieno[2,3-d]pyrimidin-4-yl)-3,6-dihydropyridin-1(2H)-yl)methyl)-1-thioxoisoindolin-2-yl)piperidine-2,6-dione]	10 to 20	60 to 70	50 to 60	80 to 100	A (0% ≤ substrate protein remaining % ≤ 80%)	B (80%< substrate protein remaining %≤ 100%)	A (0% ≤ substrate protein remaining % ≤ 80%)	A (0% ≤ substrate protein remaining % ≤ 80%)	A (0% ≤ substrate protein remaining % ≤ 80%)	80 to 100	100 to 110	80 to 100	100 to 110	5 to 10	80 to 100	A (0% ≤ substrate protein remaining % ≤ 80%)	–	–
60 to 80	80 to 100	O=C1CCC(N2Cc3cc(CN4CC=C(c5ncnc6sc(-c7ccccc7)cc56)CC4)ccc3C2=S)C(=O)N1 (centres unmarked) [GT-09319, 3-(5-((4-(6-phenylthieno[2,3-d]pyrimidin-4-yl)-3,6-dihydropyridin-1(2H)-yl)methyl)-1-thioxoisoindolin-2-yl)piperidine-2,6-dione]	–	–	40 to 50	80 to 100	A (0% ≤ substrate protein remaining % ≤ 80%)	B (80%< substrate protein remaining %≤ 100%)	A (0% ≤ substrate protein remaining % ≤ 80%)	A (0% ≤ substrate protein remaining % ≤ 80%)	A (0% ≤ substrate protein remaining % ≤ 80%)	80 to 100	80 to 100	70 to 80	80 to 100	20 to 30	70 to 80	A (0% ≤ substrate protein remaining % ≤ 80%)	50 to 60	inhibition at 0.01 µM [7, 13]: 5 to 10%
60 to 80	80 to 100	O=C1CCC(N2Cc3cc(CN4CC=C(c5ncnc6sc7c(c56)CCCC7)CC4)ccc3C2=S)C(=O)N1 (centres unmarked) [GT-09324, 3-(5-((4-(5,6,7,8-tetrahydrobenzo[4,5]thieno[2,3-d]pyrimidin-4-yl)-3,6-dihydropyridin-1(2H)-yl)methyl)-1-thioxoisoindolin-2-yl)piperidine-2,6-dione]	–	–	30 to 40	80 to 100	B (80%< substrate protein remaining %≤ 100%)	B (80%< substrate protein remaining %≤ 100%)	B (80%< substrate protein remaining %≤ 100%)	A (0% ≤ substrate protein remaining % ≤ 80%)	B (80%< substrate protein remaining %≤ 100%)	10 to 20	80 to 100	20 to 30	80 to 100	–	–	A (0% ≤ substrate protein remaining % ≤ 80%)	–	–
60 to 80	80 to 100	O=C1CCC(N2Cc3cc(CN4CC=C(c5ncnc6sc7c(c56)CCC7)CC4)ccc3C2=S)C(=O)N1 (centres unmarked) [GT-09325, 3-(5-((4-(6,7-dihydro-5H-cyclopenta[4,5]thieno[2,3-d]pyrimidin-4-yl)-3,6-dihydropyridin-1(2H)-yl)methyl)-1-thioxoisoindolin-2-yl)piperidine-2,6-dione]	–	–	20 to 30	80 to 100	B (80%< substrate protein remaining %≤ 100%)	B (80%< substrate protein remaining %≤ 100%)	B (80%< substrate protein remaining %≤ 100%)	A (0% ≤ substrate protein remaining % ≤ 80%)	B (80%< substrate protein remaining %≤ 100%)	5 to 10	80 to 100	-15 to -5	80 to 100	–	–	A (0% ≤ substrate protein remaining % ≤ 80%)	–	–
–	–	Nc1cccc2c1CN(C1CCC(=O)NC1=O)C2=O (centres unmarked) [lenalidomide, reference compound]	10 to 20	30 to 40	5 to 10	5 to 10	–	–	–	–	–	0 to 5	5 to 10	5 to 10	5 to 10	0 to 5	–	–	10 to 20	inhibition at 0.01 µM [8, 13]: 0 to 5%; inhibition at 0.5 µM [8, 14]: 0 to 5%; inhibition at 0.01 µM [9, 13]: 20 to 30%; inhibition at 0.5 µM [9, 14]: 10 to 20%; inhibition at 0.01 µM [10, 13]: 10 to 20%; inhibition at 0.5 µM [10, 14]: 10 to 20%; inhibition at 0.01 µM [11, 13]: 10 to 18%; inhibition at 0.5 µM [11, 14]: 10 to 18%; inhibition at 0.01 µM [12, 13]: 5 to 10%; inhibition at 0.5 µM [12, 14]: 0 to 5%

Compound	inhibition at 0.5 µM [3] [%]	inhibition at 2 µM [3] [%]	inhibition at 0.01 µM [1] [%]	inhibition at 0.5 µM [1] [%]	inhibition at 0.01 µM [2] [%]	inhibition at 0.5 µM [2] [%]	IKZF2 substrate protein remaining % (IKZF2)	CK1α substrate protein remaining % (CK1α)	IKZF3 substrate protein remaining % (IKZF3)	Wee1 substrate protein remaining % (WEE1)	IKZF 1 substrate protein remaining % (IKZF1)	inhibition at 0.01 µM [4] [%]	inhibition at 0.5 µM [4] [%]	inhibition at 0.01 µM [5] [%]	inhibition at 0.5 µM [5] [%]	inhibition at 0.01 µM [6] [%]	inhibition at 0.5 µM [6] [%]	GSPT1 substrate protein remaining % (GSPT1)	inhibition at 0.5 µM [7] [%]	also measured
O=C1CCC(N2Cc3cc(CN4CC=C(c5ncc6ccsc6n5)CC4)ccc3C2=S)C(=O)N1 (centres unmarked) [GT-09327, 3-(5-((4-(thieno[2,3-d]pyrimidin-2-yl)-3,6-dihydropyridin-1(2H)-yl)methyl)-1-thioxoisoindolin-2-yl)piperidine-2,6-dione]	60 to 80	80 to 100	–	–	20 to 30	80 to 100	A (0% ≤ substrate protein remaining % ≤ 80%)	B (80%< substrate protein remaining %≤ 100%)	B (80%< substrate protein remaining %≤ 100%)	A (0% ≤ substrate protein remaining % ≤ 80%)	B (80%< substrate protein remaining %≤ 100%)	20 to 30	80 to 100	30 to 40	80 to 100	–	–	A (0% ≤ substrate protein remaining % ≤ 80%)	–	–

Source: EP4745135A1 (Gluetacs Therapeutics (Shanghai) Co., Ltd., priority 2023, dated 2025)
